Legend:
CDK1/CyclinA2 = CDK1/CyclinA2 (Homo sapiens (Human), UniProt P06493); test: CDK kinase inhibitory activity, ADP-Glo Kinase Assay, CDK1/CyclinA2; format: biochemical
CDK9/CyclinD3 = CDK9/CyclinD3 (Homo sapiens (Human), UniProt P50750); test: Kinase inhibitory activity, ADP-Glo Kinase Assay, CDK9/CyclinD3; format: biochemical
Method: 1.1 Instrument and Kit Information
1.2 Experimental Preparation • 1.2.1 Preparation of Kinase Reaction Buffer I: The 5×Reaction Buffer A (Promega; V307A-C) provided in the kit was mixed and diluted with MILLI-Q® H2O and 0.1 M DTT (dithiothreitol) to give 4× kinase buffer, and then MILLI-Q® H2O was further added to finally formulate the solution into 1× Kinase buffer.
1 μl of 10 mM standard substance stock solution was taken and added to 9 μl of kinase reaction buffer I and mixed well; then 90 μl of kinase reaction buffer I was added and mixed well; then 100 μl of kinase reaction buffer I was added and mixed well. The final concentration was 50 μM. • b. 40 μl of kinase reaction buffer II was added into B2 to B10 of a 96-well plate, and 50 μl of the above solution was added into B1; • c. 10 μl of solution was taken from well B1, added into B2, and mixed well; then 10 μl of the resulting solution was taken and added into B3, and dilution was carried out in sequence to B9, so as to obtain control solutions that are diluted by 5-fold sequentially. • (2) Preparation of test compound solution: • a. Test compound solutions at a certain concentration were taken, respectively, diluted with kinase reaction buffer I to a final concentration of 50 μM compound solution; • b. 40 μl of kinase reaction buffer II was added into H2 to H10 of the 96-well plate; and 50 μl of the above solution was added into H1; • c. 10 μl of solution was taken from well H1, added into H2, and mixed well; then 10 μl of the resulting solution was taken and added into H3, and dilution was carried out in sequence to H9, so as to obtain test compound solutions that are diluted by 5-fold sequentially. • 1.2.4 Preparation of a mixed solution of reaction substrate and ATP: • a. Preparation of ATP solution: • 200 μl of 0.1 mM ATP solution: 2 μl of 10 mM ATP was added to 198 μl of kinase reaction buffer I; • 300 μl of 50 μM ATP solution: 150 μl of kinase reaction buffer I was added to 150 μl of the above 0.1 mM ATP solution; • b. Preparation of 300 μl of reaction substrate solution: • 150 μl 1 μg/μl reaction substrate stock solution was added to 150 μl kinase reaction buffer I, and mixed well; • c. The above a/b solutions were mixed to obtain mixed solutions, respectively.
1.3 Experimental process: • 1.3.1: 2 μl of compound solutions of various concentrations were taken, added to a 384-well plate, and centrifuged 3 minutes; • 1.3.2: 4 μl of kinase solution was added to each well, centrifuged at 5000 rpm and 18° C. for 10 minutes, and shaken on a plate shaker for 10 minutes; • 1.3.3: 4 μl of mixed solution of substrate and ATP was added to each well, centrifuged at 5000 rpm and 18° C. for 10 minutes, and shaken on a plate shaker at 37° C. for 90 minutes; • 1.3.4: The 384-well plate was taken out, and allowed to stand to room temperature; • 1.3.5: 10 μl of ADP-GLO™ reagent was added to each well, centrifuged at 5000 rpm and 18° C. for 18 minutes, and shaken on a plate shaker at 25° C. for 40 minutes, and then the reaction was stopped; • 1.3.6: 20 μl of kinase detection reagent was added to each well, centrifuged at 5000 rpm and 18° C. for 10 minutes, and shaken on a plate shaker at 25° C. for 30 minutes; and • 1.3.7: M1000pro MICROPLATE READER was used to read […] values.
The inhibition rate of each compound at each concentration point was calculated by the formula as follows and curve fitting was performed by GraphPad Prism 5 software to obtain the IC50 value.

CDK6/CyclinD3 = CDK6/CyclinD3 (Homo sapiens (Human), UniProt Q00534); test: CDK kinase inhibitory activity, ADP-Glo Kinase Assay, CDK6/CyclinD3; format: biochemical
[1] = Rat pharmacokinetic determination (LC/MS/MS of plasma); format: in vivo, SD rats; settings: for bioavailability: oral, intragastric 5 mg/kg vs intravenous 2 mg/kg; for AUC(0-inf): read-out: Area under curve AUC0-∞; for half-life: read-out: Half life T1/2 (converted); for AUC(0-t): read-out: Area under curve AUC0-t; for MRT: read-out: Retention time MRT; for Vd: read-out: Apparent volume of distribution VZ; for clearance: read-out: Clearance rate Cl
Method: Rat Pharmacokinetic Determination of Representative Compounds of the Present Disclosure
SD rats were used as the test animals, and the concentrations of the drugs in the plasma of rats at different time points after the intravenous administration and intragastric administration of the representative compounds were determined by LC/MS/MS, so as to study the pharmacokinetic behavior of the compounds of the disclosure in rats and evaluate the pharmacokinetic characteristics thereof.
Intragastric administration: An appropriate amount of sample was weighed, and added with 0.1% hydroxyethyl cellulose/0.5% TWEEN®80 to a final volume to give 1 mg/ml solution.
(§1) Whole blood was anticoagulated with EDTA-K2 and centrifuged, the supernatant was removed, and the residue was frozen at −20° C. until sample analysis. Plasma samples were analyzed by LC-MS/MS, sample pretreatment was performed using a protein precipitation method, the linear range of sample analysis was 1-2000 ng/ml, and the lowest quantification limit was 1 ng/ml.

[2] = Pharmacokinetic determination in mouse (LC/MS/MS of plasma); format: in vivo, ICR mice; settings: for AUC(0-t): read-out: Area under curve AUC0-t; for AUC(0-inf): read-out: Area under curve AUC0-∞; for half-life: read-out: Half life T1/2 (converted); for MRT: read-out: Retention time MRT
Method: Pharmacokinetic Determination of Representative Compounds of this Disclosure in Mouse
The ICR mice were used as the test animals, and the concentrations of the drugs in the plasma of mice at different time points after intragastric administration and intravenous administration of the representative compound of the present disclosure were determined by LC/MS/MS, so as to study the pharmacokinetic behavior of the compounds of the disclosure in mice and evaluate the pharmacokinetic characteristics thereof.
An appropriate amount of sample was weighed, and added with 0.1% hydroxyethyl cellulose/0.5% TWEEN®80 to a final volume to give 0.5 mg/ml solution for intragastric administration.
as §1, with “analysis. […] The plasma samples were treated in the same manner as that employed for plasma samples of the intragastrically administered group.” for “analysis.”, “using” for “using a”

[3] = male, SD, rat, plasma, po, rats, single intragastric administration, 5 mg/kg
[4] = male, rat, plasma, po, rats, single intragastric administration, 5 mg/kg, Mean ± SD
[5] = male, rat, plasma, rats, single intravenous administration, 2 mg/kg, Mean ± SD
[6] = male, ICR, mouse, plasma, po, mice, single intragastric administration, 5 mg/kg, Mean ± SD
[7] = male, ICR, mouse, plasma, mice, single intravenous administration, 2 mg/kg, Mean ± SD

Compound | IC50 (CDK1/CyclinA2) [nM] | IC50 (CDK9/CyclinD3) [nM] | IC50 (CDK6/CyclinD3) [nM] | bioavailability ([1]; male, SD, rat, plasma, rats) [%] | AUC(0-inf) [1, 3] [ng·h/mL] | AUC(0-t) [1, 4] [ng·h/mL] | Vd [1, 5] [L/kg] | AUC(0-t) [1, 5] [ng·h/mL] | clearance [1, 5] [mL/min/kg] | MRT [1, 5] [h] | AUC(0-t) [2, 6] [ng·h/mL] | AUC(0-inf) [2, 6] [ng·h/mL] | AUC(0-t) [2, 7] [ng·h/mL] | AUC(0-inf) [2, 7] [ng·h/mL] | further results
CCN1CCC(c2ccc(Nc3ncc(F)c(-c4cc(F)c5c(c4)C4(CCCC4)C(C)=N5)n3)nc2)CC1 [Example 12, N-(5-(1-ethylpiperidin-4-yl)pyridin-2-yl)-5-fluoro-4-(7′-fluoro-2′-methylspiro [cyclopentane-1,3′-indol]-5′-yl)pyrimidine-2-amino] | 1070 | 57.2 | 3.78 | – | – | – | – | – | – | – | – | – | – | – | CDK1/CDK6 (CDK6/CyclinD3; ratio of IC50s, selectivity for CDK6 over CDK1): 283.33; CDK9/CDK6 (CDK6/CyclinD3; ratio of IC50s, selectivity for CDK6 over CDK9): 18.75; Pim-1/CDK6 (CDK6/CyclinD3; ratio of IC50s, selectivity for CDK6 over Pim-1): 3.99
CC1=Nc2c(F)cc(-c3nc(Nc4ccc(C5CCN(C)CC5)cn4)ncc3F)cc2C12CCCC2 [Example 17, 5-Fluoro-4-(7′-fluoro-2′-methylspiro[cyclopentane-1,3′-indol]-5′-yl)-N-(5-(1-methylpiperidin-4-yl)pyridin-2-yl)pyrimidine-2-amino] | 2710 | 5.36 | 0.73 | 102 | 5260 | 2610 ± 1220 | 19.4 ± 5.89 | 1020 ± 239 | 30 ± 11.1 | 7.78 ± 1.3 | 2130 ± 96.9 | 2500 ± 387 | 1140 ± 77.8 | 1327 ± 4 | half-life [1, 3]: 2 h; Cmax ([1]; male, rat, plasma, po, rats, single intragastric administration, 5 mg/kg, Mean ± SD, read-out: Blood concentration Cmax): 188 ± 75 ng/mL; MRT [1, 4]: 10.2 ± 0.27 h; AUC(0-inf) [1, 5]: 1220 ± 456 ng·h/mL; half-life [1, 5]: 8.67 ± 4.98 h; Bioavailability in rats, in words ([1]; relative to LY2835219): higher bioavailability; bioavailability ([2]; male, ICR, mouse, plasma, oral, mice, intragastric 5 mg/kg vs intravenous 2 mg/kg): 75.1%; Cmax ([2]; male, ICR, mouse, plasma, po, mice, single intragastric administration, 5 mg/kg, Mean ± SD, read-out: Blood concentration Cmax): 134 ± 11.8 ng/mL; half-life [2, 6]: 8.38 ± 3.16 h; MRT [2, 6]: 9.45 ± 1.05 h; Vd ([2]; male, ICR, mouse, plasma, mice, single intravenous administration, 2 mg/kg, Mean ± SD, read-out: Apparent volume of distribution VZ): 19.8 ± 0.81 L/kg; half-life [2, 7]: 9.1 ± 0.26 h; MRT [2, 7]: 7.51 ± 0.28 h; Clearance rate Cl ([2]; mice, single intravenous administration, 2 mg/kg, Mean ± SD): 25.2 ± 1.72 mL/min/kg; Bioavailability and half-life in mice, in words ([2]; relative to LY2835219): higher bioavailability and longer half-life; Inhibitory effect on CDK6, in words (CDK6/CyclinD3; test conclusion): higher enzymatic activity for CDK6
CCN1CCN(Cc2ccc(Nc3ncc(F)c(-c4cc(F)c5nc(C)n(C(C)C)c5c4)n3)nc2)CC1 [LY2835219, reference compound] | – | – | – | 87.4 | 3440 | 3280 ± 731 | 6.95 ± 2.43 | 1500 ± 337 | 22.4 ± 4.49 | 3.82 ± 1.44 | 756 ± 34 | 765 ± 34 | 674 ± 82.1 | 679 ± 81 | clearance ([2]; male, ICR, mouse, plasma, mice, single intravenous administration, 2 mg/kg, Mean ± SD, read-out: Clearance rate Cl): 49.6 ± 5.72 mL/min/kg

Source: patent US11091476B2, “Protein kinase inhibitors, preparation method and medical use thereof” (Gan & Lee Pharmaceuticals, priority 2015, dated 2021)
